“Also recorded” adds a separate entry of the source.
What was measured:
GL261 cells = experiment: GL261 apoptosis and necrosis with or without 5 Gy x-rays; assay type: cell-based, murine; conditions: Tetrac 2 μM, T-NP 0.2 μM
Procedure: Apoptotic cells were identified using TUNEL staining (Terminal deoxynucleotidyl transferase dUTP nick end labeling (TUNEL)) (staining kit obtained from Oncor, Gaithersberg, Md.; ApoTag) (See Gavrieli et al., J. Cell. Biol. 1992. 119:493-501). The staining procedures were carried out as instructed by the manufacturer. Gill's hematoxylin was used as a counterstain to discriminate negative cells (purple) from positive cells (brown). Negative controls were performed by omitting the terminal deoxynucleotidyl transferase enzyme. Positive controls were performed by incubating cells with Dnase I (3000 U/ml) in 50 mM Tris-HCl, pH 7.5, in 1 mg/ml bovine serum albumin (BSA) for 10 min at ambient temperature.
To perform FCM, a total of 10^6 adherent cells were trypsinized and washed once in ambient temperature PBS. They were then fixed in 70% ethanol, and stored overnight, at 4° C. […] Cells were left overnight at 4° C. in the dark and were then analyzed on a Coulter fluorescence-activated cell sorter (Coulter Electronics, Hialeah, Fla.). Cells were excited with a single 488 nm argon laser and the resulting fluorescence was detected using a 585 nm filter. Linear red-orange fluorescence (FL3) data were collected in list format and 10,000 events were collected. The distribution of cells within the cell cycle (sub-G1, G1, S, and G2+M phases) was determined using a Coulter software program.

[1] = system: human medullary thyroid carcinoma cells; experiment: Confocal distribution of Cy3-labeled Tetrac vs Tetrac NP; assay type: cell-based; conditions: around 2 h
From the text: Penicillin streptomycin (1%) was present in both culture media.

MDA-MB-231 cells = experiment: RNA microarray of MDA-MB-231 cells; assay type: cell-based, human
Procedure: MDA-MB-231 cells were maintained in DMEM that was supplemented with 10% FBS in a 5% CO2/95% 02 air incubator at 37° C. For two days prior to exposure to Tetrac and nanoparticulate Tetrac, cells were maintained in 0.25% FBS that was stripped of estrogen and thyroid hormone. (See Lin et al., Biochemistry 42: 7571-7579 (2003)).
Microarray analysis experiments were conducted as described previously. (See Glinsky et al., J Clin Invest 115: 1503-1521 (2005); Glinsky et al., J Clin Invest 113: 913-923 (2004); Glinsky et al., Clin Cancer Res 10: 2272-2283 (2004); and Glinsky et al., Mol Carcinog 37: 209-221 (2003)). […] Sample purity and integrity were verified with an Agilent BioAnalyzer (Santa Clara, Calif.). Expression analysis of 54,675 transcripts for each sample was by Affymetrix HG-U133A Plus 2.0 arrays. MAS5.0 software was used for data retrieval and analysis and concordant changes of gene expression in response to unmodified Tetrac and nanoparticulate Tetrac were defined by two-tailed t test at a threshold p value<0.01.
Expression of ˜54,000 transcripts was analyzed in control and drug-treated cultures, using Affymetrix Human Genome U133 plus 2.0 microarrays. Subsequent analysis was focused on genes affected by treatment at p<0.01. There was 93% concordance between Tetrac and Tetrac NP in terms of genes affected; notable disparities included downregulation of epidermal growth factor receptor (EGFR) by Tetrac NP and no affect of unmodified Tetrac on this gene.

GL261 tumor cells = experiment: GL261 44° C. hyperthermia; assay type: cell-based, murine; conditions: 44° C. plus Tetrac is the equivalent of 45° C. without Tetrac
Procedure: Additionally, Tetrac sensitizes GL261 cells in hyperthermic conditions. Graded heat treatment of GL261 tumor cells with 44° C. was given, without and with Tetrac. Tetrac increased cell killing as compared to control cells alone, by the equivalent of about 1° C. (i.e., 44° C. plus Tetrac is the equivalent of 45° C. without Tetrac). (See FIG. 63).

SKN-SH/R cells = experiment: Senescence and apoptosis in drug resistant cells; assay type: cell-based; conditions: 24 h
Procedure: In FIG. 16A, SKN-SH/R cells were subjected to treatment doxorubicin (Dox) alone, Tetrac alone, or the combination of both for 24 h. Expression of p21/WAF1, cleaved caspase-3 (Cl-Casp-3) and beta action were measured by Western blot using specific antibodies. In FIG. 16B, the cells were seeded in 24 well plates and treated as mentioned above and expression of the senescence associated beta galactosidase (SA-β-Gal.) was assayed as described in the methods section. In FIG. 16C, the cells were seeded on cover slips and treated with the drugs as above for 24 h, after which they were fixed and stained with Hoechst and the percentage of positive cells graphed. The data represent average of 3 determinations±SE.

[2] = system: doxorubicin-resistant MCF7/R cells; experiment: Doxorubicin-resistant tumors in nude mice; assay type: in vivo
Procedure: Mice were injected with doxorubicin-resistant MCF7/R cells (10^6) and after 10 days, they were assigned into groups of seven mice each and challenged with doxorubicin (2 mg/kg) or Tetrac (30 mg/kg) either alone or in combination. Tumor volume was measured every 3 days for up to three weeks.

[3] = system: medullary thyroid carcinoma cells implanted in CAM; experiment: CAM cancer implant model; assay type: in vivo, chick; conditions: 1 μg/CAM; n = 8; P<0.01
Procedure: The effect of Tetrac versus nanoparticulate Tetrac at 1.0 μg/CAM on tumor angiogenesis and tumor growth of 1×10^6 medullary thyroid carcinoma cells implanted in Matrigel in 7 day-old CAM's was determined 8 days after implantation. […] Data represent mean tumor weight (mg) and tumor hemoglobin (mg/dL)±SEM per treatment group, n=8 per group.

With `O=C(O)Cc1cc(I)c(Oc2cc(I)c(O)c(I)c2)c(I)c1` [Tetrac, tetraiodothyroacetic acid] the “effect on necrosis, necrotic percentage at 120 hours (in words)” value (GL261 cells) was “essentially additive”, the “effect plus 5 Gy of x-rays on apoptosis (in words)” value (GL261 cells) was “supra-additive” and the “distribution within h-MTC cells (in words)” value [1] was “distributed in the cytoplasm”. For the same compound, the “Change: BCL2L14” value (MDA-MB-231 cells) was “not a significant stimulatory action and ↑”, the “Change: CASP2, Caspase 2” value (MDA-MB-231 cells) was “not a significant stimulatory action and ↑” and the “Change: CBY1, Catenin inhibitor” value (MDA-MB-231 cells) was “significantly increased and induced and ↑”. For the same compound, the “Change: CDKN2C, Cyclin-dependent kinase inhibitor” value (MDA-MB-231 cells) was “↑”, the “Change: CTNNA1, Catenin” value (MDA-MB-231 cells) was “↓” and the “Change: CTNNA2, Catenin” value (MDA-MB-231 cells) was “↓”. For the same compound, the “Change: CTSL1, Cathepsin 1” value (MDA-MB-231 cells) was “↓”, the “Change: CXCL10, Anti-endothelial cell chemokine” value (MDA-MB-231 cells) was “↑” and the “Change: Cyclins, Cell cycle regulators” value (MDA-MB-231 cells) was “↓”. For the same compound, the “Change: EDN1, Endothelin-1” value (MDA-MB-231 cells) was “↑”, the “Change: Interleukins, Inflammatory cytokines” value (MDA-MB-231 cells) was “↓” and the “Change: MCL1, Myeloid cell leukemia-1” value (MDA-MB-231 cells) was “did not significantly affect and ↓”. For the same compound, the “Change: NR1D1, Nuclear receptor Rev-erbα” value (MDA-MB-231 cells) was “↓”, the “Change: THBS1, Thrombospondin” value (MDA-MB-231 cells) was “strongly induced and ↑” and the “Change: XIAP, X-linked inhibitor of apoptosis protein” value (MDA-MB-231 cells) was “acted on XIAP and ↓”. For the same compound, the “expression of epidermal growth factor receptor (EGFR) (in words)” value (MDA-MB-231 cells) was “ineffective; also recorded: no affect”, the “half-time for Tetrac uptake” value (Tetrac uptake) was 10 to 15 min and the “increase in cell killing, temperature equivalent” value (GL261 tumor cells) was “about 1 °C”. For the same compound, the “doxorubicin-induced proliferation arrest (p21/WAF1), SA-β-Gal and cell death (in words)” value (SKN-SH/R cells) was “dramatically enhanced”, the “toxic effect (in words)” value ([2]; Tetrac 30 mg/kg) was “without any noticeable toxic effect” and the “doxorubicin-sensitivity in vivo (in words)” value ([2]; Tetrac 30 mg/kg with doxorubicin 2 mg/kg) was “not restored”. The “growth of doxorubicin-resistant tumors (in words)” value ([2]; Tetrac 30 mg/kg, up to three weeks) was “effective in suppressing the growth of drug resistant tumors”, the “tumor growth (in words)” value [3] was “effective inhibition” and the “tumor-mediated angiogenesis (in words)” value [3] was “significant inhibition”.

— patent US8802240B2, “Uses of formulations of thyroid hormone analogs and nanoparticulate forms thereof to increase chemosensitivity and radiosensitivity in tumor or cancer cells” (Nanopharmaceuticals LLC, priority 2011, dated 2014)
